Source: patent US7759355B2, “Adenosine A2A receptor antagonists for treating restless legs syndrome or nocturnal myoclonus” (Kyowa Hakko Kirin Co., Ltd., priority 2002, dated 2010)

Tests used:
[1] = tested on: patients with moderate to severe RLS; experiment: Human clinical trial, RLS treatment with an A2A antagonist (IRLSRS total score and total PLMS index by polysomnography); type: in vivo; conditions: 80 mg once a day for 6 weeks
Method: In order to assess the efficacy of a representative A2A antagonist in treating RLS, a clinical trial was initiated and conducted in accordance with standard procedures. Briefly, the total score in International RLS Rating Scale (IRLSRS) and total PLMS index (polysomnography; PLMS index represents the number of periodic limb movements per hour of sleep) of the patients were measured to evaluate the efficacy of Compound A in RLS [Understanding and Diagnosing Restless Legs Syndrome (2003), Restless Legs Syndrome Foundation, 819 Second Street, SW Rochester, Minn. 55902].
Scoring for IRLSRS was made according to the following Instructions for Examiner (Maximum IRLSRS total score is 40).
The Examiner was instructed to have the patient rate his/her symptoms for the following ten questions. The patient and not the examiner made the ratings, but the examiner was available to clarify any misunderstandings the patient may have had about the questions. Either the examiner or the patient marked the answers on the form. In questions 1, 2, 4, 5, 6, 9 and 10, the following scoring was used: (4) Very severe; (3) Severe; (2) Moderate; (1) Mild; and (0) None.
Patients diagnosed with idiopathic RLS were withheld from the medication from the time of screening until the end of treatment. After tapering all RLS medications, patients were screened for eligibility. At Week −2, patients were admitted to the clinic on the night preceding the visit day to be adapted to the sleep environment of the laboratory. After screening, IRLSRS total score and total PLMS index of the patients were measured on Day −1 in order to establish a baseline and to assess the range of RLS fluctuation. Only patients with moderate to severe RLS (15 and more IRLSRS total scores) were enrolled in the study.
Treatment with Compound A (80 mg, once a day) began on the day following Day −1 visit and continued for the next 6 weeks. The last dose of Compound A was taken on the day of Week 6 visit. At Week 8, patients received RLS assessments (IRLSRS total score and total PLMS index). The inhibition ratio for each score was calculated by the following equation. Inhibition Ratio(%)={[(Score at Day−1)−(Score at Week 8)]/(Score at Day−1)}×100

[2] = tested on: patients with advanced Parkinson's disease; animal models; conditions: animal models and early Phase II studies in patients with advanced Parkinson's disease; cited from earlier work
parkinsonian monkeys = conditions: Neurology, 52, 1673-1677 (1999); cited from earlier work
[3] = Week 8 vs Day-1 baseline, N = 4

Structure (SMILES) | IRLSRS Total Score, Inhibition Ratio [1, 3] [%] | Total PLMS Index, Inhibition Ratio [1, 3] [%] | IRLSRS Total Score, Week 8, mean (SD) ([1]; assessed at Week 8, N = 4, baseline (Day-1) 32.5 (4.39), maximum score 40) | Total PLMS Index, Week 8, mean (SD) ([1]; assessed at Week 8, N = 4, baseline (Day-1) 45 (15.41), periodic limb movements per hour of sleep) | Effect on RLS symptoms ([1]; patients with moderate to severe RLS) | Amelioration of Parkinsonian symptoms [2] | Hyperactivity and dyskinesia (parkinsonian monkeys)
CCn1c(=O)c2c(nc(/C=C/c3ccc(OC)c(OC)c3)n2C)n(CC)c1=O [Compound A, (E)-8-(3,4-dimethoxystyryl)-1,3-diethyl-7-methylxanthine] | 29.2 | 45.2 | 23 (8.04) | 24.67 (23.89) | relief of RLS symptoms and improvement | efficacious in ameliorating Parkinsonian symptoms | 
CCn1c(=O)c2c(nc(/C=C/c3ccc(OC)c(OC)c3)n2C)n(CC)c1=O [KW-6002] |  |  |  |  |  |  | without producing hyperactivity and provoking dyskinesia
